Results published in PubChem BioAssay (NCI).
Values joined by “and” are separate entries in the source; they are usually repeats but may differ in a detail not shown here. Equal entries are not always repeated.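 How tested: cells in 96-well plates exposed to compound for 48 hours at five concentrations. GI50: concentration for 50% inhibition of growth. TGI: total growth inhibition.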

How the values were obtained:
Assay in all cases: NCI tumour cell line growth inhibition, 48 h
MCF7 breast = system: MCF7 breast
TK-10 renal = system: TK-10 renal
SR leukemia = system: SR leukemia
SF-295 CNS = system: SF-295 CNS
786-0 renal = system: 786-0 renal
MDA-MB-435 = system: MDA-MB-435
HCT-116 colon = system: HCT-116 colon
NCI-H226 lung = system: NCI-H226 lung
BT-549 breast = system: BT-549 breast
HCC-2998 colon = system: HCC-2998 colon
K-562 leukemia = system: K-562 leukemia
NCI-H460 lung = system: NCI-H460 lung
SK-MEL-2 melanoma = system: SK-MEL-2 melanoma
SW-620 colon = system: SW-620 colon
HOP-92 NSCLC = system: HOP-92 NSCLC
SF-268 CNS = system: SF-268 CNS
M14 melanoma = system: M14 melanoma
CCRF-CEM leukemia = system: CCRF-CEM leukemia
MDA-N = system: MDA-N
NCI-H23 lung = system: NCI-H23 lung
RPMI-8226 leukemia = system: RPMI-8226 leukemia
UACC-257 melanoma = system: UACC-257 melanoma
SF-539 CNS = system: SF-539 CNS
SN12C renal = system: SN12C renal
SK-OV-3 ovarian = system: SK-OV-3 ovarian
SK-MEL-28 melanoma = system: SK-MEL-28 melanoma
MOLT-4 leukemia = system: MOLT-4 leukemia
T-47D breast = system: T-47D breast
RXF 393 renal = system: RXF 393 renal
SK-MEL-5 melanoma = system: SK-MEL-5 melanoma
MALME-3M melanoma = system: MALME-3M melanoma
SNB-19 CNS = system: SNB-19 CNS
NCI/ADR-RES ovarian = system: NCI/ADR-RES ovarian
PC-3 prostate = system: PC-3 prostate
HCT-15 colon = system: HCT-15 colon
HL-60(TB) leukemia = system: HL-60(TB) leukemia
OVCAR-4 ovarian = system: OVCAR-4 ovarian
DU-145 prostate = system: DU-145 prostate
SNB-75 CNS = system: SNB-75 CNS
KM12 colon = system: KM12 colon
A498 renal = system: A498 renal
A549 NSCLC = system: A549 NSCLC
OVCAR-5 ovarian = system: OVCAR-5 ovarian
UACC-62 melanoma = system: UACC-62 melanoma
HOP-62 NSCLC = system: HOP-62 NSCLC
U251 CNS = system: U251 CNS
COLO 205 colon = system: COLO 205 colon
HS 578T breast = system: HS 578T breast
LOX IMVI melanoma = system: LOX IMVI melanoma
IGROV1 ovarian = system: IGROV1 ovarian
OVCAR-8 ovarian = system: OVCAR-8 ovarian
CAKI-1 renal = system: CAKI-1 renal
OVCAR-3 ovarian = system: OVCAR-3 ovarian
UO-31 renal = system: UO-31 renal
MDA-MB-231 breast = system: MDA-MB-231 breast
EKVX NSCLC = system: EKVX NSCLC
NCI-H522 lung = system: NCI-H522 lung
ACHN renal = system: ACHN renal
HT29 colon = system: HT29 colon

CN1CCN(c2ccc([N+](=O)[O-])c3no[n+]([O-])c23)CC1
GI50 (MCF7 breast): 141 nM | TGI (MCF7 breast): 1790 nM and 985 nM | GI50 (TK-10 renal): 454 nM | TGI (TK-10 renal): 2330 nM and 1490 nM | GI50 (SR leukemia): 20.1 nM | TGI (SR leukemia): 27.4 nM and 93.6 nM | GI50 (SF-295 CNS): 292 nM | TGI (SF-295 CNS): 1820 nM and 1590 nM | GI50 (786-0 renal): 298 nM | TGI (786-0 renal): 923 nM and 1150 nM | GI50 (MDA-MB-435): 642 nM | TGI (MDA-MB-435): 2510 nM and 1990 nM | GI50 (HCT-116 colon): 152 nM | TGI (HCT-116 colon): 1630 nM and 634 nM | GI50 (NCI-H226 lung): 697 nM | TGI (NCI-H226 lung): 3390 nM and 2160 nM | GI50 (BT-549 breast): 841 nM | TGI (BT-549 breast): 4640 nM and 2120 nM | GI50 (HCC-2998 colon): 1320 nM | TGI (HCC-2998 colon): 2730 nM | GI50 (K-562 leukemia): 110 nM | TGI (K-562 leukemia): 979 nM | GI50 (NCI-H460 lung): 118 nM | TGI (NCI-H460 lung): 1170 nM and 764 nM | GI50 (SK-MEL-2 melanoma): 468 nM | TGI (SK-MEL-2 melanoma): 3010 nM and 1660 nM | GI50 (SW-620 colon): 117 nM | TGI (SW-620 colon): 828 nM and 261 nM | GI50 (HOP-92 NSCLC): 188 nM | TGI (HOP-92 NSCLC): 1200 nM | GI50 (SF-268 CNS): 198 nM | TGI (SF-268 CNS): 680 nM and 1120 nM | GI50 (M14 melanoma): 177 nM | TGI (M14 melanoma): 1700 nM and 927 nM | TGI (CCRF-CEM leukemia): 582 nM | TGI (MDA-N): 2740 nM | GI50 (NCI-H23 lung): 173 nM | TGI (NCI-H23 lung): 389 nM and 1020 nM | GI50 (RPMI-8226 leukemia): 436 nM | TGI (RPMI-8226 leukemia): 795 nM and 2430 nM | GI50 (UACC-257 melanoma): 472 nM | TGI (UACC-257 melanoma): 2690 nM and 1600 nM | GI50 (SF-539 CNS): 246 nM | TGI (SF-539 CNS): 722 nM and 733 nM | GI50 (SN12C renal): 357 nM | TGI (SN12C renal): 1290 nM and 1370 nM | GI50 (SK-OV-3 ovarian): 870 nM | TGI (SK-OV-3 ovarian): 1730 nM and 2120 nM | GI50 (SK-MEL-28 melanoma): 991 nM | TGI (SK-MEL-28 melanoma): 5590 nM and 2670 nM | GI50 (MOLT-4 leukemia): 64.5 nM | GI50 (T-47D breast): 600 nM | TGI (T-47D breast): 1160 nM and 2650 nM | GI50 (RXF 393 renal): 443 nM | TGI (RXF 393 renal): 1570 nM and 1680 nM | GI50 (SK-MEL-5 melanoma): 1040 nM | TGI (SK-MEL-5 melanoma): 2910 nM and 2510 nM | GI50 (MALME-3M melanoma): 378 nM | TGI (MALME-3M melanoma): 712 nM and 1080 nM | TGI (SNB-19 CNS): 4820 nM and 2240 nM | GI50 (NCI/ADR-RES ovarian): 286 nM | TGI (NCI/ADR-RES ovarian): 2460 nM and 1470 nM | GI50 (PC-3 prostate): 412 nM | TGI (PC-3 prostate): 2210 nM and 1940 nM | GI50 (HCT-15 colon): 227 nM | TGI (HCT-15 colon): 2150 nM and 1210 nM | GI50 (HL-60(TB) leukemia): 32.2 nM | TGI (HL-60(TB) leukemia): 157 nM and 155 nM | GI50 (OVCAR-4 ovarian): 444 nM | TGI (OVCAR-4 ovarian): 2540 nM and 1800 nM | GI50 (DU-145 prostate): 302 nM | TGI (DU-145 prostate): 1990 nM and 1280 nM | GI50 (SNB-75 CNS): 175 nM | GI50 (KM12 colon): 144 nM | TGI (KM12 colon): 1600 nM and 291 nM | GI50 (A498 renal): 288 nM | TGI (A498 renal): 2760 nM and 1710 nM | GI50 (A549 NSCLC): 385 nM | TGI (A549 NSCLC): 3530 nM and 2060 nM | GI50 (OVCAR-5 ovarian): 1490 nM | TGI (OVCAR-5 ovarian): 4250 nM and 3270 nM | GI50 (UACC-62 melanoma): 471 nM | TGI (UACC-62 melanoma): 2640 nM and 1840 nM | GI50 (HOP-62 NSCLC): 318 nM | TGI (HOP-62 NSCLC): 1260 nM and 1390 nM | GI50 (U251 CNS): 189 nM | TGI (U251 CNS): 1410 nM and 618 nM | GI50 (COLO 205 colon): 942 nM | TGI (COLO 205 colon): 2330 nM and 2410 nM | GI50 (HS 578T breast): 228 nM | TGI (HS 578T breast): 2410 nM and 1930 nM | GI50 (LOX IMVI melanoma): 157 nM | TGI (LOX IMVI melanoma): 1140 nM and 612 nM | GI50 (IGROV1 ovarian): 51.6 nM | TGI (IGROV1 ovarian): 919 nM and 362 nM | GI50 (OVCAR-8 ovarian): 145 nM | TGI (OVCAR-8 ovarian): 1750 nM and 340 nM | GI50 (CAKI-1 renal): 137 nM | TGI (CAKI-1 renal): 1600 nM and 920 nM | GI50 (OVCAR-3 ovarian): 241 nM | TGI (OVCAR-3 ovarian): 1290 nM and 753 nM | GI50 (UO-31 renal): 189 nM | TGI (UO-31 renal): 1880 nM and 1140 nM | TGI (MDA-MB-231 breast): 3460 nM and 3650 nM | TGI (EKVX NSCLC): 2830 nM and 2920 nM | GI50 (NCI-H522 lung): 115 nM | TGI (NCI-H522 lung): 507 nM and 260 nM | GI50 (ACHN renal): 158 nM | TGI (ACHN renal): 787 nM and 954 nM | GI50 (HT29 colon): 135 nM | TGI (HT29 colon): 3430 nM and 512 nM
